Among the data in ChEMBL document CHEMBL1909046, “DrugMatrix in vitro pharmacology data” are IC50 and Ki values, retold here.

For data set [1], the target named is T1, Substance-K receptor (Homo sapiens, UniProt P21452). Note: in other assays of this panel Not Active means under 50% inhibition at 10 µM.
T1 sequence (P21452 whole entry): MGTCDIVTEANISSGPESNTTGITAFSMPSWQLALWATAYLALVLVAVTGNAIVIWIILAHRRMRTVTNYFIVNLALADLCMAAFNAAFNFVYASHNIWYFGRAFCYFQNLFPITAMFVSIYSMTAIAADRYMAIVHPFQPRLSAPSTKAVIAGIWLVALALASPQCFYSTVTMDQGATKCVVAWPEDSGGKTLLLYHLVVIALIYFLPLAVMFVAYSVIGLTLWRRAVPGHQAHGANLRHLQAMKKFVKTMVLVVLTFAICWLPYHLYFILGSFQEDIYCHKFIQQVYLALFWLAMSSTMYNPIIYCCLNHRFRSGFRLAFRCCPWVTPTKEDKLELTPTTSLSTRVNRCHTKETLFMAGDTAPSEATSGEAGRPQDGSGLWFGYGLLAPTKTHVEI
Format: cell membranes, CHO, Membrane.

The target of data set [2] is T2, Neuropeptide Y receptor type 2 (Homo sapiens, UniProt P49146). Note: in other assays of this panel Not Active means under 50% inhibition at 10 µM.
T2 sequence (P49146 whole entry): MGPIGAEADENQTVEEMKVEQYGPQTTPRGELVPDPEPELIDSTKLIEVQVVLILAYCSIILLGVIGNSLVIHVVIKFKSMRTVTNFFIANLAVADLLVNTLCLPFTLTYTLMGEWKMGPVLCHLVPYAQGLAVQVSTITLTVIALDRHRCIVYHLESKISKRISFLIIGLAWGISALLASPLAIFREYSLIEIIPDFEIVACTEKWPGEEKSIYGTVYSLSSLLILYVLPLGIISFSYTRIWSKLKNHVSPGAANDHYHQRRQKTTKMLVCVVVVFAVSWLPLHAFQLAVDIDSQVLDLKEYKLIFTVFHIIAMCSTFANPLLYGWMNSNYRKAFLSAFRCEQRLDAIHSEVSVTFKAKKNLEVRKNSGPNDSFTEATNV
Format: cell membranes, KAN-TS, Membrane. The note with it: kan-ts.

A short description of data set [3]: DRUGMATRIX: Phorbol Ester radioligand binding (ligand: [3H] PDBu). Format: cell membranes, Mus musculus, ICR, Brain, Membrane. The note with it: Not Active = under 50% inhibition at 10 µM.
For data set [4], the target named is Epidermal growth factor receptor (Homo sapiens, UniProt P00533). Put plainly: DRUGMATRIX: Protein Tyrosine Kinase, EGF Receptor enzyme inhibition (substrate: Poly(Glu:Tyr)). Format: cell-based, Insect cells. The note with it: insect cells; Not Active = under 50% inhibition at 10 µM.
Sequence of Epidermal growth factor receptor (P00533 whole entry): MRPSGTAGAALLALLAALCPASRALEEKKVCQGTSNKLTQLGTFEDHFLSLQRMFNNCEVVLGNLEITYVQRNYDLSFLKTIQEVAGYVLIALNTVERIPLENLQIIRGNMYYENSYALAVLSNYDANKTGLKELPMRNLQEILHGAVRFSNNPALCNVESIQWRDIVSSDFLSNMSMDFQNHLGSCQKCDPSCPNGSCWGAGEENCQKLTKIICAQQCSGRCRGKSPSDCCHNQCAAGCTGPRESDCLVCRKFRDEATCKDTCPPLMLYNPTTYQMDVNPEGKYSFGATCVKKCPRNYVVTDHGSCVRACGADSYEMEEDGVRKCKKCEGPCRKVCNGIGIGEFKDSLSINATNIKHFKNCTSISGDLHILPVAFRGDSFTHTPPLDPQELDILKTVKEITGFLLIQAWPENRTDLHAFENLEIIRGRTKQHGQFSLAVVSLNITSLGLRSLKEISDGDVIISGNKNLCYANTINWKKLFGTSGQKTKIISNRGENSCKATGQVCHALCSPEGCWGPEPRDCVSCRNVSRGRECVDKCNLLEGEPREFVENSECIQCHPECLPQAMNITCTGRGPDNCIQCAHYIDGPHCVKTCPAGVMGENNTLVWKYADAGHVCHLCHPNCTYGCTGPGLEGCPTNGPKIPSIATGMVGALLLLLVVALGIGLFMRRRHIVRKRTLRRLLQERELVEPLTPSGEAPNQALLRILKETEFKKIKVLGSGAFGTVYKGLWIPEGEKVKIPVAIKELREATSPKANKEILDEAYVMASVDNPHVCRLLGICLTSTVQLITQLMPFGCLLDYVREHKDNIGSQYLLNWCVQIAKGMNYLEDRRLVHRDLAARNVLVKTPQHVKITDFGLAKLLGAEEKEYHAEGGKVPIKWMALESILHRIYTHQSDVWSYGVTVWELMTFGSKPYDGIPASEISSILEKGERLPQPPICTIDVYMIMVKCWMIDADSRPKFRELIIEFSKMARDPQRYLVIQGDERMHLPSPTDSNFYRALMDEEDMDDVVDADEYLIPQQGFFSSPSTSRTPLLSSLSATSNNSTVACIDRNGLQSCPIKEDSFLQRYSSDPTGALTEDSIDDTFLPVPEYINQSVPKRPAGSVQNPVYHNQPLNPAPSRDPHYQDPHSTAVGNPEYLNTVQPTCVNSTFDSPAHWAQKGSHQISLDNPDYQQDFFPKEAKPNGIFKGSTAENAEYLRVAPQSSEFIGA
Data set [5] deals with Receptor tyrosine-protein kinase erbB-2 (Homo sapiens, UniProt P04626). Kind of data set: biochemical. Format: cell-based, Insect cells.
Sequence of Receptor tyrosine-protein kinase erbB-2 (P04626 whole entry): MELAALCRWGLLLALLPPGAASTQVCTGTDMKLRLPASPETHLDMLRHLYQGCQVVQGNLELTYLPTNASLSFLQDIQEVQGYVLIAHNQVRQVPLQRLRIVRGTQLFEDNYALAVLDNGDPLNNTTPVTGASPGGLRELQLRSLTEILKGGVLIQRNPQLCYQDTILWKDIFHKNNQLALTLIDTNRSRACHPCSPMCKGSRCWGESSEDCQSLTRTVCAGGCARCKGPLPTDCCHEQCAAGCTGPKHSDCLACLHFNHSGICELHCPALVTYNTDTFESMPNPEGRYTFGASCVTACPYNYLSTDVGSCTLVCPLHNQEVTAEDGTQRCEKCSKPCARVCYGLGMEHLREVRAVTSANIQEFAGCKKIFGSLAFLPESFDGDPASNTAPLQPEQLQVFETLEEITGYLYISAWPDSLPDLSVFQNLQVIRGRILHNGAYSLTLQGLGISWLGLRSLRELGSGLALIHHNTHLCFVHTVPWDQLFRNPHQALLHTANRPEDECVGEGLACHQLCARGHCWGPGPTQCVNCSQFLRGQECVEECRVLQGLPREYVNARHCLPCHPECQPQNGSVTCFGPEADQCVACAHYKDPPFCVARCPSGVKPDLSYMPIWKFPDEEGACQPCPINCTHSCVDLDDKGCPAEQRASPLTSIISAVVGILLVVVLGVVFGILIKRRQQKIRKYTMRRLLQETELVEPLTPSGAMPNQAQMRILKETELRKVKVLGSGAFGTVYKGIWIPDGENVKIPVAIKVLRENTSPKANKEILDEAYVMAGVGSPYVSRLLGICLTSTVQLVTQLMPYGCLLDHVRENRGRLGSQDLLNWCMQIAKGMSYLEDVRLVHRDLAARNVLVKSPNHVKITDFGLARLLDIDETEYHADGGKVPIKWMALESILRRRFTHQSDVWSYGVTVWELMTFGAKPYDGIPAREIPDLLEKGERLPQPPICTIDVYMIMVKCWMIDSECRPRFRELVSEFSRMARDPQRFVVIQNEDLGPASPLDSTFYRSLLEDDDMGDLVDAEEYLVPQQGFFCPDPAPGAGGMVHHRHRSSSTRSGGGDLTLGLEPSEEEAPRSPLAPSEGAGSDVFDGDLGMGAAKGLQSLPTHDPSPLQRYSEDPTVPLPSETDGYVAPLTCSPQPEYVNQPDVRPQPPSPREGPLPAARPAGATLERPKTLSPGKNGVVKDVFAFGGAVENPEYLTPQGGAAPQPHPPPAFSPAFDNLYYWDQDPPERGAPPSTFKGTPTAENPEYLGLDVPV
For data set [6], the target named is Acetylcholinesterase (Homo sapiens, UniProt P22303). Put plainly: DRUGMATRIX: Acetylcholinesterase enzyme inhibition (substrate: acetylthiocholine). In kind it is cell-based, HEK293. The note with it: hek293; Not Active = under 50% inhibition at 10 µM.
Sequence of Acetylcholinesterase (P22303 whole entry): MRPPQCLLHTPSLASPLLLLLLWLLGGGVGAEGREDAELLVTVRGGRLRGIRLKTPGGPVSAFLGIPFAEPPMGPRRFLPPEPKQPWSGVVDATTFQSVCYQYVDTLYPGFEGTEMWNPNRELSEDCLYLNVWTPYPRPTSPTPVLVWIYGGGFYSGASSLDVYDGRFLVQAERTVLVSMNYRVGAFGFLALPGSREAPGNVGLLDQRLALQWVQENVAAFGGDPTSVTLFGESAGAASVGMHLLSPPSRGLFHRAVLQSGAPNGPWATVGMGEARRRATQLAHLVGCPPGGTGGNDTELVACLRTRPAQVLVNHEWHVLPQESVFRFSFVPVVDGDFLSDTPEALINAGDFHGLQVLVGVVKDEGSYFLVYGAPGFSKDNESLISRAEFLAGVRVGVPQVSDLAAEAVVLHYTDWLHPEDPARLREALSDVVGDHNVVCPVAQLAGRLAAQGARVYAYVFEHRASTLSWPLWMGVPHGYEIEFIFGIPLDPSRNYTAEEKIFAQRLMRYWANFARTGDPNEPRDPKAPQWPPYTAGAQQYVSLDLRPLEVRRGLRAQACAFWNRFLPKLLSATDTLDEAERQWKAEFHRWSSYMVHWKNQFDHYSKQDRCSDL
Data set [7] has as its target Cytochrome P450 2E1 (Homo sapiens, UniProt P05181). The note with it: bti-tn-5b1-4. Note: in other assays of this panel Not Active means under 50% inhibition at 10 µM.

SMILES strings stand for the structures.

Sequence of Cytochrome P450 2E1 (P05181 whole entry): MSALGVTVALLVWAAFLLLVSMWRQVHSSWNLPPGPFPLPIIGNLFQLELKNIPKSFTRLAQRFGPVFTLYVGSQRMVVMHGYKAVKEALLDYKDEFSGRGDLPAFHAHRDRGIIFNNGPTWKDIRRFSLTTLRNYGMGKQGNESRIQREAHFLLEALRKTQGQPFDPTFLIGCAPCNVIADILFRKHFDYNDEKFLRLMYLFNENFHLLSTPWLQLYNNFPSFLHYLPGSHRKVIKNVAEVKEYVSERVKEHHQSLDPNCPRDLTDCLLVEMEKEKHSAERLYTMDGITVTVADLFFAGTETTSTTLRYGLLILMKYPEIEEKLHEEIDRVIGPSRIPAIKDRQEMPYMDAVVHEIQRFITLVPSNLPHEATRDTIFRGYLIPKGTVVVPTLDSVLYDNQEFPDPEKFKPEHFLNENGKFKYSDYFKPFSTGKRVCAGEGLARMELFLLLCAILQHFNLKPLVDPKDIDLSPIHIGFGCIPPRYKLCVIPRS

For `COC1=C(OC)C(=O)C(CCCCCCCCCCO)=C(C)C1=O` [IDEBENONE], the IC50 entry in data set [1] (cho), in data set [2], in data set [3], in data set [4], in data set [5] (insect cells) and in data set [6] was “Not Active” in each case. Besides, the IC50 entry in data set [7] is on record as “Not Active”. In addition, the Ki entry in data set [3] and in data set [7] was “Not Active” in each case.

On to `CC(C)NNC(=O)c1ccncc1` [IPRONIAZID], for which the IC50 entry in data set [1] (cho), in data set [2], in data set [3], in data set [4], in data set [5] (insect cells) and in data set [6] was “Not Active” each time. Further, the IC50 result in data set [7] is “Not Active”. Besides, the Ki entry in data set [3] and in data set [7] was “Not Active” throughout.

Regarding `Cc1c(OCC(F)(F)F)ccnc1C[S+]([O-])c1nc2ccccc2[nH]1` (configuration not stated) [LANSOPRAZOLE], the IC50 entry in data set [1] (cho), in data set [2], in data set [3], in data set [4], in data set [5] (insect cells) and in data set [6] was “Not Active” throughout. Further, the IC50 entry in data set [7] is “Not Active”. The Ki result in data set [3] and in data set [7] was “Not Active” throughout.

As for `COc1ccc2[nH]cc(CCNC(C)=O)c2c1` [MELATONIN], the IC50 entry in data set [1] (cho), in data set [2], in data set [3], in data set [4], in data set [5] (insect cells) and in data set [6] was “Not Active” in each case. Besides, the IC50 entry in data set [7] is on record as “Not Active”. For the same molecule, the Ki entry in data set [3] and in data set [7] was “Not Active” throughout.

For the molecule `NC(=O)C[S+]([O-])C(c1ccccc1)c1ccccc1` (configuration not stated) [MODAFINIL], the IC50 entry in data set [1] (cho), in data set [2], in data set [3], in data set [4], in data set [5] (insect cells) and in data set [6] was “Not Active” each time. In addition, the IC50 entry in data set [7] is reported as “Not Active”. In addition, the Ki result in data set [3] and in data set [7] was “Not Active” in each case.

In the case of `CCN(CC)CCOCCC1=CCC2CC1C2(C)C` (configuration not stated) [MYRTECAINE], the IC50 entry in data set [1] (cho), in data set [2], in data set [3], in data set [4], in data set [5] (insect cells) and in data set [6] was “Not Active” each time. Further, in data set [7], the IC50 result is recorded as “Not Active”. Also, the Ki result in data set [3] and in data set [7] was “Not Active” each time.

`O=C(O)c1cccnc1Nc1cccc(C(F)(F)F)c1` [NIFLUMIC ACID]: the IC50 result in data set [1] (cho), in data set [2], in data set [3], in data set [4], in data set [5] (insect cells) and in data set [6] was “Not Active” each time. The IC50 entry in data set [7] is listed as “Not Active”. In addition, the Ki entry in data set [3] and in data set [7] was “Not Active” in each case.

As to `O=C(N/N=C/c1ccc([N+](=O)[O-])o1)c1cc([N+](=O)[O-])cc([N+](=O)[O-])c1O` [NIFURSOL], the IC50 entry in data set [1] (cho), in data set [2], in data set [3], in data set [4], in data set [5] (insect cells) and in data set [6] was “Not Active” in each case. The IC50 result in data set [7] is given as “Not Active”. Further, the Ki result in data set [3] and in data set [7] was “Not Active” in each case.

For `COC(=O)Nc1nc2ccc(C(=O)c3cccs3)cc2[nH]1` [NOCODAZOLE], the IC50 result in data set [1] (cho), in data set [2], in data set [3], in data set [4], in data set [5] (insect cells) and in data set [6] was “Not Active” throughout. For the same molecule, in data set [7], the IC50 result is given as “Not Active”. Moreover, the Ki entry in data set [3] and in data set [7] was “Not Active” in each case.

As for `C#CC1(O)CC[C@H]2[C@@H]3CCC4=CC(=O)CC[C@@H]4[C@H]3CC[C@@]21CC` (some centres not stated) [NORGESTREL], the IC50 entry in data set [1] (cho), in data set [2], in data set [3], in data set [4], in data set [5] (insect cells) and in data set [6] was “Not Active” in each case. Moreover, in data set [7], the IC50 entry is given as “Not Active”. Besides, the Ki result in data set [3] and in data set [7] was “Not Active” each time.

In the case of `COC(=O)Nc1nc2ccc([S+]([O-])c3ccccc3)cc2[nH]1` (configuration not stated) [OXFENDAZOLE], the IC50 result in data set [1] (cho), in data set [2], in data set [3], in data set [4], in data set [5] (insect cells) and in data set [6] was “Not Active” throughout. For the same molecule, the IC50 result in data set [7] was “Not Active”. The Ki result in data set [3] and in data set [7] was “Not Active” in each case.

Regarding `CC(=O)O[C@H]1C(=O)[C@@]2(C)[C@H]([C@H](OC(=O)c3ccccc3)[C@]3(O)C[C@H](OC(=O)[C@H](O)[C@@H](NC(=O)c4ccccc4)c4ccccc4)C(C)=C1C3(C)C)[C@]1(OC(C)=O)CO[C@@H]1C[C@@H]2O` [PACLITAXEL], the IC50 is 6.12 µM in data set [1] (read-out: IC50); “Not Active” in data set [2]; “Not Active” in data set [3]; “Not Active” in data set [4]; 11.1 µM in data set [5] (read-out: IC50); “Not Active” in data set [6]. Also, the IC50 entry in data set [7] is listed as “Not Active”. Also, the figures for the Ki in data set [1] (read-out: Ki), in data set [3] and in data set [7] were 2.04 µM, “Not Active” and “Not Active”, respectively.

`C[n+]1ccc(-c2cc[n+](C)cc2)cc1.[Cl-].[Cl-]` [PARAQUAT DICHLORIDE]: the IC50 result in data set [1] (cho), in data set [2], in data set [3], in data set [4], in data set [5] (insect cells) and in data set [6] was “Not Active” each time. The IC50 entry in data set [7] is “Not Active”. In addition, the Ki result in data set [3] and in data set [7] was “Not Active” throughout.

With `CCn1cc(C(=O)O)c(=O)c2cnc(N3CCCC3)nc21` [PIROMIDIC ACID], the IC50 result in data set [1] (cho), in data set [2], in data set [3], in data set [4], in data set [5] (insect cells) and in data set [6] was “Not Active” in each case. In addition, the IC50 result in data set [7] is given as “Not Active”. The Ki result in data set [3] and in data set [7] was “Not Active” in each case.

In the case of `C[n+]1ccccc1/C=N/O.[Cl-]` [PRALIDOXIME CHLORIDE], the IC50 result in data set [1] (cho), in data set [2], in data set [3], in data set [4], in data set [5] (insect cells) and in data set [6] was “Not Active” each time. In addition, the IC50 entry in data set [7] is on record as “Not Active”. Moreover, the Ki entry in data set [3] and in data set [7] was “Not Active” throughout.

`COc1cc2nc(N3CCN(C(=O)c4ccco4)CC3)nc(N)c2cc1OC` [PRAZOSIN]: the IC50 entry in data set [1] (cho), in data set [2], in data set [3], in data set [4], in data set [5] (insect cells) and in data set [6] was “Not Active” each time. The IC50 entry in data set [7] was “Not Active”. In addition, the Ki entry in data set [3] and in data set [7] was “Not Active” each time.

`C[C@]12C=CC(=O)C=C1CC[C@@H]1[C@@H]2[C@@H](O)C[C@@]2(C)[C@H]1CC[C@]2(O)C(=O)CO` [PREDNISOLONE]: the IC50 result in data set [1] (cho), in data set [2], in data set [3], in data set [4], in data set [5] (insect cells) and in data set [6] was “Not Active” throughout. Besides, in data set [7], the half-maximal inhibitory concentration (IC50) result is reported as “Not Active”. The Ki result in data set [3] and in data set [7] was “Not Active” each time.

On to `CC(=O)[C@H]1[C@H](C#N)C[C@H]2[C@@H]3CC=C4C[C@@H](O)CC[C@]4(C)[C@H]3CC[C@@]21C` [PREGNENOLONE CARBONITRILE], for which the IC50 result in data set [1] (cho), in data set [2], in data set [3], in data set [4], in data set [5] (insect cells) and in data set [6] was “Not Active” each time. In addition, the IC50 entry in data set [7] is reported as “Not Active”. In addition, the Ki result in data set [3] and in data set [7] was “Not Active” throughout.

Turning to `CCCN(CCC)S(=O)(=O)c1ccc(C(=O)O)cc1` [PROBENECID], the IC50 result in data set [1] (cho), in data set [2], in data set [3], in data set [4], in data set [5] (insect cells) and in data set [6] was “Not Active” throughout. In addition, the IC50 result in data set [7] is on record as “Not Active”. Further, the Ki result in data set [3] and in data set [7] was “Not Active” each time.
